In one experiment the target is T1, BRD4 BD1 (Homo sapiens, UniProt O60885, Y390A).
T1 construct: BRD4 (1-477) (Y97A) and (Y390A); made in house; host or cells: E. coli (pET15b vector)
Description: TR-FRET binding assay, BRD4 BD1 (mutant protein). Conditions: 10 nM mutated bromodomain protein, Alexa Fluor647 ligand at Kd, read-out: mean pIC50 in the BRD4 BD1 assay (converted). The procedure: (§1) Biological Data Time Resolved Fluorescence Resonance Energy Transfer (TR-FRET) Assay
(§2) Binding was assessed using a time resolved fluorescent resonance energy transfer binding assay. This utilises a 6 His purification tag at the N-terminal of the proteins as an epitope for an anti-6 His antibody labeled with Europium chelate (PerkinElmer AD0111) allowing binding of the Europium to the proteins which acts as the donor fluorophore.
(§3) In the absence of a competing compound, excitation of the Europium causes the donor to emit at λ618 nm which excites the Alexa labelled bromodomain binding compound leading to an increased energy transfer that is measurable at λ647 nM. In the presence of a sufficient concentration of a compound that can bind these proteins, the interaction is disrupted leading to a quantifiable drop in fluorescent resonance energy transfer.
The binding of compounds of the invention to Bromodomains BRD2, BRD3, BRD4 and BRDT was assessed using mutated proteins to detect differential binding to either Binding Domain 1 (BD1) or Binding Domain 2 (BD2) on the bromodomain. […] Therefore in the final assay conditions, binding of the fluoroligand to the mutated domain cannot be detected and subsequently the assay is suitable to determine the binding of compounds to the single non-mutated bromodomain. […]
All assay components were dissolved in buffer composition of 50 mM HEPES pH7.4, 50 mM NaCl, 5% Glycerol, 1 mM DTT and 1 mM CHAPS. […] Plates were then read on the Envision plate reader, (⋅ex=317 nm, donor ⋅em=615 nm; acceptor ⋅em=665 nm; Dichroic LANCE dual). Time resolved fluorescent intensity measurements were made at both emission wavelengths and the ratio of acceptor/donor was calculated and used for data analysis. […]
In general terms: TR-FRET usually uses a lanthanide donor and a delayed reading to cut background.

Experiment [1] has as its system LPS induced MCP-1 production. Nature of the experiment: LPS induced MCP-1 production from human whole blood. Particulars: LPS 200 ng/mL, 18-24 hours; for IC50: read-out: mean pIC50, LPS induced MCP-1 production (converted). Type of experiment: cell-based. From the text: Measurement of LPS Induced MCP-1 Production from Human Whole Blood
Activation of monocytic cells by agonists of toll-like receptors such as bacterial lipopolysaccharide (LPS) results in production of key inflammatory mediators including MCP-1. Such pathways are widely considered to be central to the pathophysiology of a range of auto-immune and inflammatory disorders. Blood is collected in a tube containing Sodium heparin (Leo Pharmaceuticals) (10 units of heparin/mL of blood). 96-well compound plates containing 1 μL test sample in 100% DMSO were prepared (two replicates on account of donor variability). 130 μL of whole blood was dispensed into each well of the 96-well compound plates and incubated for 30 min at 37° C., 5% CO2. 10 μL of lipopolysaccharide (from Salmonella typhosa; L6386) made up in PBS (200 ng/mL final assay concentration) was added to each well of the compound plates. The plates were then placed in the humidified primary cell incubator for 18-24 hours at 37° C., 5% CO2. 140 μL of PBS was added to all wells of the compound plates containing blood. The plates were then sealed and centrifuged for 10 mins at 2500 rpm. 25 μL of cell supernatant was placed in a 96-well MSD plate pre-coated with human MCP-1 capture antibody. The plates were sealed and placed on a shaker at 600 rpm for 1 hour (r.t). 25 μL of Anti-human MCP-1 antibody labelled with MSD SULFO-TAG™ reagent is added to each well of the MSD plate (stock 50× was diluted 1:50 with Diluent 100, final assay concentration is 1 μg/mL). The plates were then re-sealed and shaken for another hour before washing with PBS. 150 μL of 2×MSD Read Buffer T (stock 4×MSD Read Buffer T was diluted 50:50 with de-ionised water) was then added to each well and the plates read on the MSD Sector Imager 6000. Concentration response curves for each compound were generated from the data and an pIC50 value was calculated.

For the next experiment, the target named is T2, BRD4 BD2 (Homo sapiens, UniProt O60885, Y97A).
T2 construct: BRD4 (1-477) (Y97A) and (Y390A); made in house; host or cells: E. coli (pET15b vector)
Description: TR-FRET binding assay, BRD4 BD2 (mutant protein). Particulars: 10 nM mutated bromodomain protein, Alexa Fluor647 ligand at Kd, read-out: mean pIC50 in the BRD4 BD2 assay (converted). The procedure:
as §1, §2, §3
The binding of compounds of the invention to Bromodomains BRD2, BRD3, BRD4 and BRDT was assessed using mutated proteins to detect differential binding to either Binding Domain 1 (BD1) or Binding Domain 2 (BD2) on the bromodomain. […] Therefore in the final assay conditions, binding of the fluoroligand to the mutated domain cannot be detected and subsequently the assay is suitable to determine the binding of compounds to the single non-mutated bromodomain.
Recombinant Human Bromodomains [(BRD2 (1-473) (Y113A) and (Y386A), BRD3 (1-435) (Y73A) and (Y348A) BRD4 (1-477) (Y97A) and (Y390A) and BRDT (1-397) (Y66A) and (Y309A)] were expressed in E coli cells (in pET15b vector for BRD2/3/4 and in pET28a vector for BRDT) with a 6-His tag at the N-terminal. The His-tagged Bromodomain pellet was resuspended in 50 mM HEPES (pH7.5), 300 mM NaCl, 10 mM imidazole & 1 μl/ml protease inhibitor cocktail and extracted from the E coli cells using sonication and purified using a nickel sepharose high performance column, the proteins were washed and then eluted with a linear gradient of 0-500 mM imidazole with buffer 50 mM HEPES (pH7.5), 150 mM NaCl, 500 mM imidazole, over 20 column volumes. Final purification was completed by Superdex 200 prep grade size exclusion column. Purified protein was stored at −80° C. in 20 mM HEPES pH 7.5 and 100 mM NaCl.
All assay components were dissolved in buffer composition of 50 mM HEPES pH7.4, 50 mM NaCl, 5% Glycerol, 1 mM DTT and 1 mM CHAPS. The final concentration of bromodomain proteins were 10 nM and the Alexa Fluor647 ligand was at Kd. These components were premixed and 5 μl of this reaction mixture was added to all wells containing 50 nl of various concentrations of test compound or DMSO vehicle (0.5% DMSO final) in Greiner 384 well black low volume microtitre plates and incubated in dark for 30 minutes at rt. […] of detection mixture containing 1.5 nM final concentration anti-6His Europium chelate was added to all wells and a further dark incubation of at least 30 minutes was performed. Plates were then read on the Envision plate reader, (⋅ex=317 nm, donor ⋅em=615 nm; acceptor ⋅em=665 nm; Dichroic LANCE dual). Time resolved fluorescent intensity measurements were made at both emission wavelengths and the ratio of acceptor/donor was calculated and used for data analysis. All data was normalized to the mean of 16 high (inhibitor control—Example 11 of WO 2011/054846A1) and 16 low (DMSO) control wells on each plate. A four parameter curve fit of the following form was then applied: y=a+((b−a)/(1+(10^x/10^c)^d) Where ‘a’ is the minimum, […], ‘c’ is the pIC50 and […].

5 molecules from patent US11053212B2, “Benzimidazole derivatives as bromodomain inhibitors” (GLAXOSMITHKLINE INTELLECTUAL PROPERTY DEVELOPMENT LIMITED, priority 2015, dated 2021) can be followed below.

Where a name gives a salt, the structure may show the parent alone. Read-outs that look alike come from different tables or passages of the source.

For `COCC(COC)n1c(-c2cc(C)c(=O)n(C)c2)nc2cc(CN[C@H](C(=O)O)[C@@H](C)O)ccc21` [Example 66, (2S,3R)-2-(((1-(1,3-dimethoxypropan-2-yl)-2-(1,5-dimethyl-6-oxo-1,6-dihydropyridin-3-yl)-1H-benzo[d]imidazol-5-yl)methyl)amino)-3-hydroxybutanoic acid hydrochloride], the IC50 on BRD4 BD1 is 200 nM; in experiment [1], 1000 nM; at BRD4 BD2, 1260 nM.

As for `Cc1cc(-c2nc3cc(CN[C@H](C(=O)O)[C@@H](C)O)ccc3n2CC2CCOCC2)cn(C)c1=O` [Example 68, (2S,3R)-2-(((2-(1,5-dimethyl-6-oxo-1,6-dihydropyridin-3-yl)-1-((tetrahydro-2H-pyran-4-yl)methyl)-1H-benzo[d]imidazol-5-yl)methyl)amino)-3-hydroxybutanoic acid hydrochloride], the IC50 on BRD4 BD1 was 251 nM; in experiment [1] it was 3980 nM; on BRD4 BD2 it was 631 nM.

As to `Cc1cc(-c2nc3cc(CN[C@H](C(=O)OC(C)C)[C@@H](C)O)ccc3n2CC2CCOCC2)cn(C)c1=O` [Example 303, (2S,3R)-isopropyl 2-(((2-(1,5-dimethyl-6-oxo-1,6-dihydropyridin-3-yl)-1-((tetrahydro-2H-pyran-4-yl)methyl)-1H-benzo[d]imidazol-5-yl)methyl)amino)-3-hydroxybutanoate], the IC50 in experiment [1] (Homo sapiens) was 25.1 nM.

For `COCC(COC)n1c(-c2cc(C)c(=O)n(C)c2)nc2cc(CN[C@H](C(=O)OC(C)C)[C@@H](C)O)ccc21` [Example 305, (2S,3R)-Isopropyl 2-(((1-(1,3-dimethoxypropan-2-yl)-2-(1,5-dimethyl-6-oxo-1,6-dihydropyridin-3-yl)-1H-benzo[d]imidazole-5-yl)methyl)amino)-3-hydroxybutanoate], the IC50 is 50.1 nM at BRD4 BD1, 10 nM in experiment [1] and 398 nM on BRD4 BD2.

Regarding `Cc1cc(-c2nc3cc(CN[C@H](C(=O)OC(C)C)[C@@H](C)O)ccc3n2CC2CCOCC2)cn(C)c1=O` [edisylate salt of Example 303, 1,2-ethanedisulphonic acid salt of (2S,3R)-isopropyl 2-(((2-(1,5-dimethyl-6-oxo-1,6-dihydropyridin-3-yl)-1-((tetrahydro-2H-pyran-4-yl)methyl)-1H-benzo[d]imidazol-5-yl)methyl)amino)-3-hydroxybutanoate], the “mean pIC50, LPS induced MCP-1 production” value in experiment [1] came to 7.5.
